# Legend:
# Assay in all cases: Postemergent herbicidal activity, greenhouse
# Assay type in all cases: in vivo
# [1] = system: SETFA Setaria faberi Herrm. (giant foxtail)
# Protocol: (§1) Evaluation of Postemergent Herbicidal Activity. Seeds or nutlets of the desired test plant species were planted in Sun Gro Metro-Mix® 360 planting mixture, which typically has a pH of 6.0 to 6.8 and an organic matter content of about 30 percent, in plastic pots with a surface area of 64 square centimeters (cm^2). When required to ensure good germination and healthy plants, a fungicide treatment and/or other chemical or physical treatment was applied. The plants were grown for 7-21 days (d) in a greenhouse with an approximate 15 hour (h) photoperiod which was maintained at about 23-29° C. during the day and 22-28° C. during the night. Nutrients and water were added on a regular basis and supplemental lighting was provided with overhead metal halide 1000-Watt lamps as necessary. The plants were employed for testing when they reached the first or second true leaf stage.
# (§2) A weighed amount, determined by the highest rate to be tested, of each test compound was placed in a 25 milliliter (mL) glass vial and was dissolved in 4 mL of a 97:3 volume per volume (v/v) mixture of acetone and dimethyl sulfoxide (DMSO) to obtain concentrated stock solutions. […] The concentrated stock solutions obtained were diluted with 20 mL of an aqueous mixture containing acetone, water, isopropyl alcohol, DMSO, Atplus 411F crop oil concentrate, and Triton® X-155 surfactant in a 48.5:39:10:1.5:1.0:0.02 v/v ratio to obtain spray solutions containing the highest application rates. Additional application rates were obtained by serial dilution of 12 mL of the high rate solution into a solution containing 2 mL of a 97:3 v/v mixture of acetone and DMSO and 10 mL of an aqueous mixture containing acetone, water, isopropyl alcohol, DMSO, Atplus 411F crop oil concentrate, and Triton X-155 surfactant in a 48.5:39:10:1.5:1.0:0.02 v/v ratio to obtain ½X, ¼X, ⅛X and 1/16X rates of the high rate. Compound requirements are based upon a 12 mL application volume at a rate of 187 liters per hectare (L/ha). Formulated compounds were applied to the plant material with an overhead Mandel track sprayer equipped with 8002E nozzles calibrated to deliver 187 L/ha over an application area of 0.503 square meters (m^2) at a spray height of 18 inches ([…]) above the average plant canopy height. Control plants were sprayed in the same manner with the solvent blank.
# (§3) Treatments consisted of the methyl ester of 4-amino-3-chloro-6-(4-chloro-2-fluoro-3-methoxyphenyl)pyridine-2-carboxylic acid (Cmpd 1) as technical grade material and fluazifop-P-butyl (Fusilade® DX), haloxyfop-P-methyl (GALLANT® super), and quizalofop-P-ethyl (Assure® II) alone and in combination. The form of compound of formula (I) and fluazifop-P-butyl, haloxyfop-P-methyl, and quizalofop-P-ethyl were applied on an acid equivalent basis.
# (§4) The treated plants and control plants were placed in a greenhouse as described above and watered by subirrigation to prevent wash-off of the test compounds. After 14 d, the condition of the test plants as compared with that of the untreated plants was determined visually and scored on a scale of 0 to 100 percent where 0 corresponds to no injury and 100 corresponds to complete kill.
# (§5) Results of testing mixtures in accordance with this disclosure and of the components of the mixtures separately against various common weeds in greenhouse trials are reported in the following tables. The reported values are of percent (%) control or percent (%) injury, visually rated. Colby's equation was used to determine the herbicidal effects expected from the mixtures (Colby, S. R. Calculation of the synergistic and antagonistic response of herbicide combinations. Weeds 1967, 15, 20-22.).
# (§6) More specifically, the following equation was used to calculate the expected activity of mixtures containing two active ingredients, A and B:
# (§7) A=observed efficacy of active ingredient A at the same concentration as used in the mixture; B=observed efficacy of active ingredient B at the same concentration as used in the mixture. […]
# [2] = system: CIRAR Cirsium arvense (L.) Scop. (Canada thistle)
# Protocol: as §1, §2, §3, §4, §5, §6, §7
# [3] = system: VIOTR Viola tricolor L. (wild violet)
# Protocol: as §1, §2, §3, §4, §5, §6, §7
# [4] = system: GLXMA Glycine max (soybean)
# Protocol: as §1, §2, §3, §4, §5, §6, §7
# [5] = system: CYPES Cyperus esculentus L. (yellow nutsedge)
# Protocol: as §1, §2, §3, §4, §5, §6, §7
# [6] = system: HELAN Helianthus annuus L. (common sunflower)
# Protocol: as §1, §2, §3, §4, §5, §6, §7
# [7] = system: STEME Stellaria media (L.) Vill. (common chickweed)
# Protocol: as §1, §2, §3, §4, §5, §6, §7
# [8] = system: BRSNW Brassica napus (winter oilseed rape)
# Protocol: as §1, §2, §3, §4, §5, §6, §7
# [9] = system: ABUTH Abutilon theophrasti Medik. (velvetleaf)
# Protocol: as §1, §2, §3, §4, §5, §6, §7
# [10] = system: DIGSA Digitaria sanguinalis (L.) Scop. (large crabgrass)
# Protocol: as §1, §2, §3, §4, §5, §6, §7
# [11] = system: AMARE Amaranthus retroflexus L. (redroot pigweed)
# Protocol: as §1, §2, §3, §4, §5, §6, §7
# [12] = system: AVEFA Avena fatua L. (wild oat)
# Protocol: as §1, §2, §3, §4, §5, §6, §7
# [13] = system: CHEAL Chenopodium album L. (common lambsquarters)
# Protocol: as §1, §2, §3, §4, §5, §6, §7
# [14] = system: EPHHL Euphorbia heterophylla L. (wild poinsettia)
# Protocol: as §1, §2, §3, §4, §5, §6, §7
# [15] = system: IPOHE Ipomoea hederacea (L.) Jacq. (ivyleaf momingglory)
# Protocol: as §1, §2, §3, §4, §5, §6, §7
# [16] = system: SORVU Sorghum vulgare (common sorghum)
# Protocol: as §1, §2, §3, §4, §5, §6, §7
compound,measurement,setting,value
"CCCCOC(=O)[C@@H](C)Oc1ccc(Oc2ccc(C(F)(F)F)cn2)cc1 [Fluazifop-P, fluazifop-P-butyl]",Visual Growth Reduction (%) 14 DAA Obs,[1]; Fluazifop-P 52.5 g ae/ha,80%
same,Visual Growth Reduction (%) 14 DAA Obs,[1]; Fluazifop-P 105 g ae/ha,80%
same,Visual Growth Reduction (%) 14 DAA Obs,[1]; Fluazifop-P 210 g ae/ha,90%
same,Visual Growth Reduction (%) 14 DAA Obs,[2]; Fluazifop-P 52.5 g ae/ha,0%
same,Visual Growth Reduction (%) 14 DAA Obs,[2]; Fluazifop-P 105 g ae/ha,0%
same,Visual Growth Reduction (%) 14 DAA Obs,[2]; Fluazifop-P 210 g ae/ha,0%
same,Visual Growth Reduction (%) 14 DAA Obs,[3]; Fluazifop-P 52.5 g ae/ha,0%
same,Visual Growth Reduction (%) 14 DAA Obs,[3]; Fluazifop-P 105 g ae/ha,0%
same,Visual Growth Reduction (%) 14 DAA Obs,[3]; Fluazifop-P 210 g ae/ha,0%
same,Visual Growth Reduction (%) 14 DAA Obs,[4]; Fluazifop-P 52.5 g ae/ha,0%
same,Visual Growth Reduction (%) 14 DAA Obs,[4]; Fluazifop-P 105 g ae/ha,0%
same,Visual Growth Reduction (%) 14 DAA Obs,[4]; Fluazifop-P 210 g ae/ha,0%
same,Visual Growth Reduction (%) 14 DAA Obs,[5]; Fluazifop-P 52.5 g ae/ha,0%
same,Visual Growth Reduction (%) 14 DAA Obs,[5]; Fluazifop-P 105 g ae/ha,0%
same,Visual Growth Reduction (%) 14 DAA Obs,[5]; Fluazifop-P 210 g ae/ha,0%
same,Visual Growth Reduction (%) 14 DAA Obs,[6]; Fluazifop-P 52.5 g ae/ha,0%
same,Visual Growth Reduction (%) 14 DAA Obs,[6]; Fluazifop-P 105 g ae/ha,0%
same,Visual Growth Reduction (%) 14 DAA Obs,[6]; Fluazifop-P 210 g ae/ha,0%
same,Visual Growth Reduction (%) 14 DAA Obs,[7]; Fluazifop-P 52.5 g ae/ha,0%
same,Visual Growth Reduction (%) 14 DAA Obs,[7]; Fluazifop-P 105 g ae/ha,0%
same,Visual Growth Reduction (%) 14 DAA Obs,[7]; Fluazifop-P 210 g ae/ha,0%
same,Visual Growth Reduction (%) 14 DAA Obs,[8]; Fluazifop-P 52.5 g ae/ha,0%
same,Visual Growth Reduction (%) 14 DAA Obs,[8]; Fluazifop-P 105 g ae/ha,0%
same,Visual Growth Reduction (%) 14 DAA Obs,[8]; Fluazifop-P 210 g ae/ha,0%
same,Visual Growth Reduction (%) 14 DAA Obs,[9]; Fluazifop-P 52.5 g ae/ha,0%
same,Visual Growth Reduction (%) 14 DAA Obs,[9]; Fluazifop-P 105 g ae/ha,0%
same,Visual Growth Reduction (%) 14 DAA Obs,[9]; Fluazifop-P 210 g ae/ha,0%
same,Visual Growth Reduction (%) 14 DAA Obs,[10]; Fluazifop-P 52.5 g ae/ha,70%
same,Visual Growth Reduction (%) 14 DAA Obs,[10]; Fluazifop-P 105 g ae/ha,80%
same,Visual Growth Reduction (%) 14 DAA Obs,[10]; Fluazifop-P 210 g ae/ha,85%
same,Visual Growth Reduction (%) 14 DAA Obs,[11]; Fluazifop-P 52.5 g ae/ha,0%
same,Visual Growth Reduction (%) 14 DAA Obs,[11]; Fluazifop-P 105 g ae/ha,0%
same,Visual Growth Reduction (%) 14 DAA Obs,[11]; Fluazifop-P 210 g ae/ha,0%
same,Visual Growth Reduction (%) 14 DAA Obs,[12]; Fluazifop-P 52.5 g ae/ha,0%
same,Visual Growth Reduction (%) 14 DAA Obs,[12]; Fluazifop-P 105 g ae/ha,0%
same,Visual Growth Reduction (%) 14 DAA Obs,[12]; Fluazifop-P 210 g ae/ha,70%
same,Visual Growth Reduction (%) 14 DAA Obs,[13]; Fluazifop-P 52.5 g ae/ha,0%
same,Visual Growth Reduction (%) 14 DAA Obs,[13]; Fluazifop-P 105 g ae/ha,0%
same,Visual Growth Reduction (%) 14 DAA Obs,[13]; Fluazifop-P 210 g ae/ha,0%
same,Visual Growth Reduction (%) 14 DAA Obs,[14]; Fluazifop-P 52.5 g ae/ha,0%
same,Visual Growth Reduction (%) 14 DAA Obs,[14]; Fluazifop-P 105 g ae/ha,0%
same,Visual Growth Reduction (%) 14 DAA Obs,[14]; Fluazifop-P 210 g ae/ha,0%
same,Visual Growth Reduction (%) 14 DAA Obs,[15]; Fluazifop-P 52.5 g ae/ha,0%
same,Visual Growth Reduction (%) 14 DAA Obs,[15]; Fluazifop-P 105 g ae/ha,0%
same,Visual Growth Reduction (%) 14 DAA Obs,[15]; Fluazifop-P 210 g ae/ha,0%
same,Visual Growth Reduction (%) 14 DAA Obs,[16]; Fluazifop-P 52.5 g ae/ha,70%
same,Visual Growth Reduction (%) 14 DAA Obs,[16]; Fluazifop-P 105 g ae/ha,90%
same,Visual Growth Reduction (%) 14 DAA Obs,[16]; Fluazifop-P 210 g ae/ha,100%

# From patent US20140213446A1, “HERBICIDAL COMPOSITIONS AND METHODS USING COMBINATIONS OF 4-AMINO-3-CHLORO-6-(4-CHLORO-2-FLUORO-3-METHOXYPHENYL)PYRIDINE-2-CARBOXYLIC ACID OR A DERIVATIVE THEREOF AND AN ARYLOXYPHENOXY PROPIONATE ACCASE INHIBITOR HERBICIDE” (DOW AGROSCIENCES LLC, priority 2013, published 2014)
